Each molecule was assayed on HCT116^MTAP Deletion cells (assay: Anti-proliferation assay on cells (Cell-Titer Glo, 10 days)). Settings: 240 h, HCT116^MTAP Deletion cells, 10 days incubation, CTG readout; read-out: HCT116^MTAP Deletion GI50.
Format: cell-based
Procedure: HCT116^MTAP Deletion cells were from Pharmaron (China); HCT116 cells were from ATCC; McCoy's 5A medium was purchased from Invitrogen (USA); penicillin-streptomycin and fetal bovine serum were purchased from Gibco (USA); a 384-well plate was purchased from PerkinElmer (USA); and Cell-Titer Glo reagent was purchased from Promega (USA).
Compound dissolution: All the compounds were dissolved in dimethyl sulfoxide (DMSO) and then stored. The compounds were stored at room temperature in a dry condition for 3 months for short term storage or at -20 °C for long term storage.
Cell culture and passaging
The cells were cultured strictly in accordance with ATCC requirements. The cell culture medium (McCoy's 5A medium + 10% fetal bovine serum + 1% penicillin + streptomycin) was transferred to a 15 mL centrifuge tube and centrifuged at 1000 rpm for 5 min. The supernatant was removed. The cells were resuspended with complete culture medium, inoculated into a culture dish at the required density, and cultured in an incubator at 37 °C, 95% humid air, and 5% carbon dioxide. The culture medium was replenished or the cells were passaged every 2-3 days depending on the cell growth condition.
Cell proliferation activity assay
When the confluency of cells in the culture dish reached about 90%, the cells were washed twice with PBS, and then treated with trypsin to become single cells. The cells were counted, and 40µl of the cells was inoculated into each well of a 384-well plate (50 cells/well). The plate was equilibrated at 37 °C and 5% carbon dioxide for 10 to 15 minutes. The compounds were injected into the 384-well plate using Echo550, and positive control and negative control (0.1% DMSO) were set up. Each compound was subjected to a 3-fold dilution, resulting in 10 concentration gradients, in duplicate, and the content of DMSO was 0.1%. The 384-well plate was incubated in a cell culture incubator for 10 days.
Then, 40 µl of cell proliferation assay reagent (CTG) was added to the 384-well plate, and the plate was shaken to mix well. Then, the 384-well plate was incubated at 37 °C and 5% carbon dioxide in the dark for 30 minutes. The data were read using the Envision multifunctional microplate reader. […] According to the different drug concentrations and their corresponding inhibition rates, the GI50 curve was drawn using GraphPad 8.0 software. The data were analyzed, and the final IC50 value was obtained.
In the case of `Cn1ncc2c(NC(=O)C(=O)N(CC3CC3)C3COc4cc(C(F)(F)F)ccc43)cnc(N)c21` (stereo not shown) [Example 123], the GI50 is reported as < 10 nM.
With `CCN(C(=O)C(=O)Nc1cnc(N)c2c1cnn2C)C1COCc2cc(C(F)(F)F)ccc21` (stereo not shown) [Example 101] the GI50 was < 10 nM.
`CCC(C)N(C(=O)C(=O)Nc1cnc(N)c2c1cnn2C)C1COCc2cc(C(F)(F)F)ccc21` (stereo not shown) [Example 131] gave a GI50 of 10 to 100 nM.
Work on `Cc1cc(NC(=O)C(=O)N(Cc2ccc(C(F)(F)F)cn2)CC23CC(C2)C3)cnc1N` [Example 53] yielded a GI50 of 100 to 1000 nM.
In the case of `[2H]C([2H])([2H])N(C(=O)C(=O)Nc1cnc(N)c2c1cnn2C)C1COCc2cc(C(F)(F)F)ccc21` (stereo not shown) [Example 109], the GI50 is reported as < 10 nM.
With `Cn1ncc2c(NC(=O)C(=O)N(CC3CC3)C3COCc4cc(C(F)(F)F)ccc43)cnc(N)c21` (stereo not shown) [Example 102] the GI50 was < 10 nM.
Molecule `CC(C)N(C(=O)C(=O)Nc1cnc(N)c2c1cnn2C)C1COCc2cc(C(F)(F)F)ccc21` (stereo not shown) [Example 96] has a GI50 of 10 to 100 nM.
For `CN(C(=O)C(=O)Nc1cnc(N)c2c1cnn2C)C1COCc2cc(-c3ccccc3F)ccc21` (stereo not shown) [Example 215], the GI50 was < 10 nM.
For `CCC(C)N(Cc1ccc(OC(F)(F)F)cn1)C(=O)C(=O)Nc1cnc(N)c(C)c1` (stereo not shown) [Example 92], the GI50 was 10 to 100 nM.
In the case of `CCC(C)N(Cc1ccc(OC2CC2)cn1)C(=O)C(=O)Nc1cnc(N)c(C)c1` (stereo not shown) [Example 83], the GI50 is reported as 10 to 100 nM.
In the case of `CN(C(=O)C(=O)Nc1cnc(N)c2c1cnn2C)C1COCc2cc(OC(F)(F)F)ccc21` (stereo not shown) [Example 115], the GI50 is reported as < 10 nM.
For `CN(C(=O)C(=O)Nc1cnc(N)c2c1cnn2C)C1COCc2ncccc21` (stereo not shown) [Example 151], the GI50 was 10 to 100 nM.
`CN(C(=O)C(=O)Nc1cnc(N)c2c1COC2)C1COCc2cc(C(F)(F)F)ccc21` (stereo not shown) [Example 56] showed a GI50 of 10 to 100 nM.
Molecule `CCC(C)N(Cc1cc(C)n(C)n1)C(=O)C(=O)Nc1cnc(N)c(C)c1` (stereo not shown) [Example 75] has a GI50 of 100 to 1000 nM.
`CCC(C)N(Cc1ccc(C(F)(F)F)cc1)C(=O)C(=O)Nc1cnc(N)c(C)c1` (stereo not shown) [Example 59] gave a GI50 of 10 to 100 nM.
For `CN(C(=O)C(=O)Nc1cnc(N)c2c1cnn2C)C1COc2cc(C3=CCCOC3)ccc21` (stereo not shown) [Example 169], the GI50 was 10 to 100 nM.
Work on `COc1ncc(NC(=O)C(=O)N(C)C2COc3cc(C(F)(F)F)ccc32)cc1C(N)=O` (stereo not shown) [Example 142] yielded a GI50 of 1000 to 10000 nM.
Work on `CCC(C)N(Cc1ccc(C(F)(F)F)cn1)C(=O)C(=O)Nc1cnc(N)c(C2CC2)c1` (stereo not shown) [Example 78] yielded a GI50 of 100 to 1000 nM.
Work on `CCC(C)N(Cc1ccc(S(C)(=O)=O)cn1)C(=O)C(=O)Nc1cnc(N)c(C)c1` (stereo not shown) [Example 85] yielded a GI50 of 100 to 1000 nM.
With `CN(C(=O)C(=O)Nc1cnc(N)c2c1cnn2C)C1CCCOC1` (stereo not shown) [Example 129] the GI50 was 1000 to 10000 nM.
In the case of `CN(C(=O)C(=O)Nc1cnc(N)c2c1cnn2C)C1COCc2cc(C3=CCCOC3)ccc21` (stereo not shown) [Example 108], the GI50 is reported as 10 to 100 nM.
`CCCN(C(=O)C(=O)Nc1cnc(N)c2c1cnn2C)C1COc2cc(C(F)(F)F)ccc21` (stereo not shown) [Example 117] was tested, and the GI50 was 10 to 100 nM.
In the case of `CCC(C)N(Cc1ncc(C)s1)C(=O)C(=O)Nc1cnc(N)c(C)c1` (stereo not shown) [Example 66], the GI50 is reported as 1000 to 10000 nM.
With `CN(C(=O)C(=O)Nc1cnc(N)c2c1cnn2C)C1COc2cc(C(F)(F)F)cc(F)c21` (stereo not shown) [Example 176] the GI50 was 10 to 100 nM.
For `CN(C(=O)C(=O)Nc1cnc(N)c2c1cnn2C)C1CCN(c2ccccc2)C1` (stereo not shown) [Example 130], the GI50 was 100 to 1000 nM.
`CN(C(=O)C(=O)Nc1cnc(N)c2c1cnn2C)C1COc2cc(C(F)(F)F)ncc21` (stereo not shown) [Example 188] was tested, and the GI50 was 10 to 100 nM.
With `CCC(C)N(Cc1cnc(C(F)(F)F)nc1)C(=O)C(=O)Nc1cnc(N)c(C)c1` (stereo not shown) [Example 58] the GI50 was > 10000 nM.
For `CN(C(=O)C(=O)Nc1cnc(N)c2c1cnn2C)C1COCc2cc(-c3cnn4c3CCC4)ccc21` (stereo not shown) [Example 154], the GI50 was < 10 nM.
`CC(C)N(C(=O)C(=O)Nc1cnc(N)c2c1cnn2C)C1COc2cc(C(F)(F)F)ccc21` (stereo not shown) [Example 116] was tested, and the GI50 was 10 to 100 nM.
`CN(C(=O)C(=O)Nc1cnc(N)c2c1cnn2C)C1COc2cc(-c3ccccc3)ccc21` (stereo not shown) [Example 216] showed a GI50 of 10 to 100 nM.
With `CN(C(=O)C(=O)Nc1cnc(N)c2c1cnn2C)C1COc2cc(-c3cnn(C)c3)ccc21` (stereo not shown) [Example 140-P1] the GI50 was < 10 nM.
With `Cn1ncc2c(NC(=O)C(=O)N(Cc3ccc(C(F)(F)F)cn3)Cc3ccnc4[nH]ccc34)cnc(N)c21` [Example 50] the GI50 was < 10 nM.
For `CCC(C)N(Cc1cc(C(F)(F)F)ccn1)C(=O)C(=O)Nc1cnc(N)c(C)c1` (stereo not shown) [Example 105], the GI50 was 100 to 1000 nM.
`CC1OCc2c(NC(=O)C(=O)N(Cc3ccc(C(F)(F)F)cn3)CC3CC3)cnc(N)c21` (stereo not shown) [Example 79] gave a GI50 of 100 to 1000 nM.
With `CN1CCN(c2ccc3c(c2)COCC3N(C)C(=O)C(=O)Nc2cnc(N)c3c2cnn3C)CC1` (stereo not shown) [Example 149] the GI50 was 10 to 100 nM.
`CCC(C)N(Cc1ncc(C(F)(F)F)cn1)C(=O)C(=O)Nc1cnc(N)c(C)c1` (stereo not shown) [Example 82] gave a GI50 of 100 to 1000 nM.
In the case of `CC(C)c1ccc2c(c1)OCC2N(C)C(=O)C(=O)Nc1cnc(N)c2c1cnn2C` (stereo not shown) [Example 230], the GI50 is reported as < 10 nM.
For `COc1ccc(-c2ccc3c(c2)COCC3N(C)C(=O)C(=O)Nc2cnc(N)c3c2cnn3C)cn1` (stereo not shown) [Example 202], the GI50 was < 10 nM.
In the case of `CN(C(=O)C(=O)Nc1cnc(N)c2c1cnn2C)C1COc2cc(N3CCOCC3)ccc21` (stereo not shown) [Example 205], the GI50 is reported as 10 to 100 nM.
Work on `CN(C(=O)C(=O)Nc1cnc(N)c2c1cnn2C)C1COc2cc(C3CC3)ccc21` (stereo not shown) [Example 193] yielded a GI50 of 10 to 100 nM.
With `CN(C(=O)C(=O)Nc1cnc(N)c2c1cnn2C)C1COc2cc(C(F)(F)F)c(F)cc21` (stereo not shown) [Example 199] the GI50 was 10 to 100 nM.
For `CN(C(=O)C(=O)Nc1cnc(N)c2c1cnn2C)C1COCc2cc(-c3ccccc3)ccc21` (stereo not shown) [Example 226], the GI50 was < 10 nM.

Same assay, conditions: HCT116^MTAP Deletion cells, 10 days incubation, CTG readout; read-out: HCT116^MTAP Deletion GI50
Molecule `CN1CC=C(c2ccc3c(c2)COCC3N(C)C(=O)C(=O)Nc2cnc(N)c3c2cnn3C)CC1` (stereo not shown) [Example 160] has a GI50 of 10 to 100 nM.
With `Nc1ncc(NC(=O)C(=O)N(Cc2ccc(C(F)(F)F)cn2)CC2CCC2)c2c1COC2` [Example 41] the GI50 was 100 to 1000 nM.
With `CN(C(=O)C(=O)Nc1cnc(N)c2c1cnn2C)C1COCc2c1ccc(F)c2F` (stereo not shown) [Example 138] the GI50 was 10 to 100 nM.
In the case of `CCC(C)N(Cc1ccc(C2=CCN(C(=O)OC)CC2)cn1)C(=O)C(=O)Nc1cnc(N)c(C)c1` (stereo not shown) [Example 125-P2], the GI50 is reported as < 10 nM.
Molecule `COc1ncc(NC(=O)C(=O)N(Cc2ccc(C(F)(F)F)cn2)[C@H](C)c2ncccn2)cc1C(N)=O` [Example 25] has a GI50 of 10 to 100 nM.
`Cc1cc(NC(=O)C(=O)N(Cc2ccc(C(F)(F)F)cn2)C2CCCC2)cnc1N` [Example 11] gave a GI50 of 100 to 1000 nM.
`Cc1ncc(-c2ccc3c(c2)COCC3N(C)C(=O)C(=O)Nc2cnc(N)c3c2cnn3C)s1` (racemic) [compound 181] was tested, and the GI50 was < 10 nM.
`Cc1cc(NC(=O)C(=O)N(Cc2ccc(C(F)(F)F)cn2)CC2CC2)cnc1N` [Example 15] was tested, and the GI50 was 10 to 100 nM.
`Cc1cc(NC(=O)C(=O)N(Cc2ccc(C(F)(F)F)cn2)c2cnn(C)c2)cnc1N` [Example 18] gave a GI50 of 100 to 1000 nM.
In the case of `Cc1ncc(-c2ccc3c(n2)COCC3N(C)C(=O)C(=O)Nc2cnc(N)c3c2cnn3C)s1` (racemic) [compound 209], the GI50 is reported as < 10 nM.
With `Cc1nc(NC(=O)C(=O)N(Cc2ccc(C(F)(F)F)cn2)[C@H](C)c2ncccn2)cnc1N` [Example 27] the GI50 was 100 to 1000 nM.
For `CCC(C)N(Cc1ccc(C(F)(F)F)cn1)C(=O)C(=O)Nc1cnc(N)c2c1COC2C` (stereo not shown) [Example 10], the GI50 was 10 to 100 nM.
`CCC(C)N(Cc1cnn(C)c1)C(=O)C(=O)Nc1cnc(N)c(C)c1` (stereo not shown) [Example 73] was tested, and the GI50 was > 10000 nM.
`Cc1cc(NC(=O)C(=O)N(Cc2ccc(C(F)(F)F)cn2)C(C)c2cscn2)cnc1N` (single isomer, unassigned) [Example 19-P1] showed a GI50 of 10 to 100 nM.
`CN(C(=O)C(=O)Nc1cnc(N)c2c1cnn2C)C1COc2cc(C3=CCOCC3)ccc21` (single isomer, unassigned) [Example 153-P1] was tested, and the GI50 was < 10 nM.
With `C[C@H](c1ncccn1)N(Cc1ccc(C(F)(F)F)cn1)C(=O)C(=O)Nc1cnc(N)c2c1CCCC2` [Example 31] the GI50 was 100 to 1000 nM.
With `CN(C(=O)C(=O)Nc1cnc(N)c2c1cnn2C)C1COc2cc(-c3cnn(C4CC4)c3)ccc21` (stereo not shown) [Example 211] the GI50 was < 10 nM.
`CC(C)C(C)N(Cc1ccc(C(F)(F)F)cn1)C(=O)C(=O)Nc1cnc(N)c2c1cnn2C` (stereo not shown) [Example 110-P2] was tested, and the GI50 was < 10 nM.
For `CCC(C)N(Cc1ccc(OCC(F)(F)F)nn1)C(=O)C(=O)Nc1cnc(N)c(C)c1` (stereo not shown) [Example 63], the GI50 was 100 to 1000 nM.
`CN(C(=O)C(=O)Nc1cnc(N)c2c1cnn2C)C1COCc2cc(-c3cnn(C4CC4)c3)ccc21` (racemic) [compound 223] was tested, and the GI50 was < 10 nM.
`CN(C(=O)C(=O)Nc1cnc(N)c2c1cnn2C)C1COCc2cc(-c3cnn(C)c3)ccc21` (stereo not shown) [Example 124-P2] showed a GI50 of 10 to 100 nM.
With `CC(c1cscn1)N(Cc1ccc(C(F)(F)F)cn1)C(=O)C(=O)Nc1cnc(N)c2c1cnn2C` (stereo not shown) [Example 44] the GI50 was 10 to 100 nM.
